Data: US20140128385A1 (NOVARTIS AG, priority 2011, published 2014)
Structures can show the parent of a compound that is named as a salt.

Each molecule was assayed against T1, BACE-2 (Homo sapiens, UniProt Q9Y5Z0) (assay: assay for inhibition of BACE-2).
T1 construct: Recombinant BACE-2 (extracellular domain, expressed in baculovirus and purified using standard methods); made in house
T1 sequence (Q9Y5Z0 63-473 limits assumed): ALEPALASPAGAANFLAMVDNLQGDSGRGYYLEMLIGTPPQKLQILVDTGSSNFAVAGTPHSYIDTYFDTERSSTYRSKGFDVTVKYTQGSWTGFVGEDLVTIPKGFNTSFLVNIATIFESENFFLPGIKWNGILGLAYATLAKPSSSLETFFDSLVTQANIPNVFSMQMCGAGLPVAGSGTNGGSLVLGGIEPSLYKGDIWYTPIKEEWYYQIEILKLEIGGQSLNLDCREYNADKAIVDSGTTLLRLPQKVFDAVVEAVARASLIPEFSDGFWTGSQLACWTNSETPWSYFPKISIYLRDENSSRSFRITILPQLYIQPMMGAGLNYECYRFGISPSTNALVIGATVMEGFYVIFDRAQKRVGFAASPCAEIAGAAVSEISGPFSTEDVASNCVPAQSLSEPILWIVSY
Assay type: biochemical

SMILES	IC50 [nM]
CC1(c2cc(NC(=O)c3ccc(Cl)cn3)ccc2F)N=C(N)COCC1(F)F (stereo not shown) [Example 100, N-(3-(3-amino-6,6-difluoro-5-methyl-2,5,6,7-tetrahydro-1,4-oxazepin-5-yl)-4-fluorophenyl)-5-chloropicolinamide]	17
CC1(c2cc(NC(=O)c3ccc(Br)cn3)ccc2F)N=C(N)COCC1(F)F (stereo not shown) [Example 101]	26
NC1=NC(c2cccc(NC(=O)c3cc(Br)co3)c2)(C(F)F)COC1 (stereo not shown) [Example 102]	240
NC1=NC(c2cccc(NC(=O)c3ccc(O)nn3)c2)(C(F)F)COC1 (stereo not shown) [Example 103]	> 10000
Cc1nc(C(=O)Nc2cccc(C3(C(F)F)COCC(N)=N3)c2)co1 (stereo not shown) [Example 104]	309
CCc1nc(C(=O)Nc2cccc(C3(C(F)F)COCC(N)=N3)c2)co1 (stereo not shown) [Example 105]	1020
Cc1nc(C(=O)Nc2cccc(C3(C(F)F)COCC(N)=N3)c2)c(C)o1 (stereo not shown) [Example 106]	1040
COc1cc(Br)cnc1C(=O)Nc1cccc(C2(C(F)F)COCC(N)=N2)c1 (stereo not shown) [Example 107]	133
NC1=NC(c2cccc(NC(=O)c3ncc(Br)cc3O)c2)(C(F)F)COC1 (stereo not shown) [Example 108]	24
COCCOc1cnc(C(=O)Nc2cccc(C3(C(F)F)COCC(N)=N3)c2)cn1 (stereo not shown) [Example 109]	> 10000
NC1=NC(c2cccc(NC(=O)c3cnc(C(F)F)cn3)c2)(C(F)F)COC1 (stereo not shown) [Example 110]	3550
NC1=N[C@@](c2cc(NC(=O)c3ncc(F)cc3F)ccc2F)(C(F)F)COC1 [Example 113]	29
Cc1c(C(=O)Nc2ccc(F)c([C@]3(C(F)F)COCC(N)=N3)c2)oc2ccc(Br)cc12 [Example 114]	116
Cl.[2H]c1nc(C(=O)Nc2ccc(F)c([C@]3(C(F)F)COCC(N)=N3)c2)c(C([2H])([2H])[2H])c([2H])c1Cl [Example 115]	3
Cl.[2H]c1nc(C(=O)Nc2ccc(F)c([C@]3(C(F)F)COCC(N)=N3)c2)c(C([2H])([2H])[2H])c([2H])c1Br [Example 116]	9
NC1=N[C@@](c2cc(NC(=O)c3ncc(Br)cc3O)ccc2F)(C(F)F)COC1 [Example 119]	14
NC1=N[C@@](c2cc(NC(=O)c3cnc(C(F)F)cn3)ccc2F)(C(F)F)COC1 [Example 122]	514
NC1=N[C@@](c2cc(NC(=O)c3cnc(OCC(F)F)cn3)ccc2F)(C(F)F)COC1 [Example 123]	1830
NC1=N[C@@](c2cc(NC(=O)c3cnc(OCC(F)(F)F)cn3)ccc2F)(C(F)F)COC1 [Example 124]	1630
NC1=N[C@@](c2cc(NC(=O)c3cc(Br)co3)ccc2F)(C(F)F)COC1 [Example 125]	102

SMILES	IC50 [nM]
NC1=N[C@@](c2cc(NC(=O)c3cc4ccccn4n3)ccc2F)(C(F)F)COC1 [Example 126]	550
Cc1nc(C(=O)Nc2ccc(F)c([C@]3(C(F)F)COCC(N)=N3)c2)c(C)o1 [Example 128]	95
NC1=N[C@@](c2cc(NC(=O)c3cn4ccccc4n3)ccc2F)(C(F)F)COC1 [Example 129]	1630
COc1cc(Br)cnc1C(=O)Nc1ccc(F)c([C@]2(C(F)F)COCC(N)=N2)c1 [Example 130]	42
CCc1nc(C(=O)Nc2ccc(F)c([C@]3(C(F)F)COCC(N)=N3)c2)co1 [Example 131]	67
Cn1ccnc1C(=O)Nc1ccc(F)c([C@]2(C(F)F)COCC(N)=N2)c1 [Example 133]	573
COCCOc1cnc(C(=O)Nc2ccc(F)c([C@]3(C(F)F)COCC(N)=N3)c2)cn1 [Example 135]	1090
NC1=N[C@@](c2cc(NC(=O)c3cnc(OCCF)cn3)ccc2F)(C(F)F)COC1 [Example 136]	1140
NC1=N[C@@](c2cc(NC(=O)c3ncc(Cl)cc3F)ccc2F)(C(F)F)COC1 [Example 140]	15
Cc1cc(C#N)cnc1C(=O)Nc1ccc(F)c([C@]2(C(F)F)COCC(N)=N2)c1 [Example 144]	51
Cl.[2H]c1nc(C(=O)Nc2ccc(F)c([C@]3(C(F)F)COCC(N)=N3)c2)c(C([2H])([2H])[2H])c([2H])c1C#N [Example 147]	165
Cn1cc([N+](=O)[O-])c(C(=O)Nc2ccc(F)c([C@]3(C(F)F)COCC(N)=N3)c2)n1 [Example 151]	376
C[C@@]1(c2cc(NC(=O)c3ncc(Cl)cc3N)ccc2F)CO[C@@](C)(C(F)(F)F)C(N)=N1 [Example 153, 3-Amino-5-chloro-pyridine-2-carboxylic acid [3-((3R,6R)-5-amino-3,6-dimethyl-6-trifluoromethyl-3,6-dihydro-2H-[1,4]oxazin-3-yl)-4-fluoro-phenyl]-amide hydrochloride]	3
CC1(c2cc(NC(=O)c3ncc(C(F)(F)F)cc3Cl)ccc2F)N=C(N)COCC1(F)F (stereo not shown) [Example 154, 3-Chloro-5-trifluoromethyl-pyridine-2-carboxylic acid [3-(3-amino-6,6-difluoro-5-methyl-2,5,6,7-tetrahydro-[1,4]oxazepin-5-yl)-4-fluoro-phenyl]-amide]	408
COc1cc(Br)cnc1C(=O)Nc1ccc(F)c(C2(C)N=C(N)COCC2(F)F)c1 (stereo not shown) [Example 155, 5-Bromo-3-methoxy-pyridine-2-carboxylic acid [3-(3-amino-6,6 difluoro-5-methyl-2,5,6,7 tetrahydro-[1,4]oxazepin-5-yl)-4 fluoro-phenyl]-amide]	43
CC1(c2cc(NC(=O)c3ccc(C#N)cn3)ccc2F)N=C(N)COCC1(F)F (stereo not shown) [Example 156, 5-Cyano-pyridine-2-carboxylic acid [3-(3-amino-6,6-difluoro-5 methyl-2,5,6,7-tetrahydro[1,4]oxazepin-5-yl)-4 fluoro-phenyl]-amide]	90
NC1=N[C@@](c2cc(NC(=O)c3cc4cncnc4[nH]3)ccc2F)(C(F)F)COC1 [Example 157, 7H-Pyrrolo[2,3-d]pyrimidine-6-carboxylic acid [3-((R)-5-amino-3-difluoromethyl-3,6-dihydro-2H-[1,4]oxazin-3-yl)-4-fluoro-phenyl]-amide hydrochloride]	> 10000
COCCOc1cnc(C(=O)Nc2ccc(F)c([C@]3(C(F)F)COCC(N)=N3)c2)c(N)n1 [Example 158, 3-Amino-5-(2-methoxy-ethoxy)-pyrazine-2-carboxylic acid [3-((R)-5-amino-3-difluoromethyl-3,6-dihydro-2H-[1,4]oxazin-3-yl)-4-fluoro-phenyl]-amide]	3380
NC1=N[C@@](c2cc(NC(=O)c3ncc(Cl)cc3N)ccc2F)(C(F)F)COC1 [Example 160, 3-Amino-5-chloro-pyridine-2-carboxylic acid [3-((R)-5-amino-3-difluoromethyl-3,6-dihydro-2H-[1,4]oxazin-3-yl)-4-fluoro-phenyl]-amide hydrochloride]	8

Next, values leading:

IC50 [nM]	SMILES
7	NC1=N[C@@](c2cc(NC(=O)c3ncc(Cl)cc3Cl)ccc2F)(C(F)F)COC1 [Example 111]
97	N#Cc1ccc(C(=O)Nc2ccc(F)c([C@]3(C(F)F)COCC(N)=N3)c2)nc1 [Example 112, 5-Cyano-pyridine-2-carboxylic acid [3-((R)-5-amino-3-difluoromethyl-3,6-dihydro-2H-[1,4]oxazin-3-yl)-4-fluoro-phenyl]-amide hydrochloride]
13	NC1=N[C@@](c2cc(NC(=O)c3ncc(Br)cc3Cl)ccc2F)(C(F)F)COC1 [Example 117]
11	NC1=N[C@@](c2cc(NC(=O)c3ccc(Br)cn3)ccc2F)(C(F)F)COC1 [Example 118]
1060	CCOc1ccc(C(=O)Nc2ccc(F)c([C@]3(C(F)F)COCC(N)=N3)c2)nc1 [Example 120]
35	Cc1nc(C(=O)Nc2ccc(F)c([C@]3(C(F)F)COCC(N)=N3)c2)co1 [Example 127]
180	NC1=N[C@@](c2cc(NC(=O)c3ccc(C(F)F)cn3)ccc2F)(C(F)F)COC1 [Example 132]
844	NC1=N[C@@](c2cc(NC(=O)c3ccc(O)nn3)ccc2F)(C(F)F)COC1 [Example 134]
18	NC1=N[C@@](c2cc(NC(=O)c3ccc(Cl)cn3)ccc2F)(C(F)F)COC1 [Example 137]
458	NC1=N[C@@](c2cc(NC(=O)c3ccc(OC(F)F)cn3)ccc2F)(C(F)F)COC1 [Example 138]
106	NC1=N[C@@](c2cc(NC(=O)c3ccc(OCF)cn3)ccc2F)(C(F)F)COC1 [Example 139]
43	NC1=N[C@@](c2cc(NC(=O)c3cnc(Cl)cn3)ccc2F)(C(F)F)COC1 [Example 141]
522	Cc1cc(C(=O)Nc2ccc(F)c([C@]3(C(F)F)COCC(N)=N3)c2)n[nH]1 [Example 142]
66	Cc1ccc(C(=O)Nc2ccc(F)c([C@]3(C(F)F)COCC(N)=N3)c2)nc1 [Example 143]
697	NC1=N[C@@](c2cc(NC(=O)c3cnc(O)cn3)ccc2F)(C(F)F)COC1 [Example 145]
287	Cc1nc(C(=O)Nc2ccc(F)c([C@]3(C(F)F)COCC(N)=N3)c2)cs1 [Example 148]
476	Cc1cnc(C(=O)Nc2ccc(F)c([C@]3(C(F)F)COCC(N)=N3)c2)s1 [Example 149]
61	Cn1ccc(C(=O)Nc2ccc(F)c([C@]3(C(F)F)COCC(N)=N3)c2)n1 [Example 150]
119	CCc1ccc(C(=O)Nc2ccc(F)c([C@]3(C(F)F)COCC(N)=N3)c2)nc1 [Example 159, hydrochloride]
